Assay results: ChEMBL document CHEMBL1287689, “Sulfonamide derivatives of styrylheterocycles as a potent inhibitor of COX-2-mediated prostaglandin E2 production” (Bioorg Med Chem Lett, 2010)
Calls of active or inactive are those of the source. The rule behind the calls is not given here.

How the values were obtained:
[1] = target: T1, Prostaglandin G/H synthase 2 (Mus musculus, UniProt Q05769); experiment: Inhibition of COX-2 mediated PGE2 production in LPS-induced mouse RAW264.7 cells; type: cell-based
T1 sequence (Q05769 whole entry): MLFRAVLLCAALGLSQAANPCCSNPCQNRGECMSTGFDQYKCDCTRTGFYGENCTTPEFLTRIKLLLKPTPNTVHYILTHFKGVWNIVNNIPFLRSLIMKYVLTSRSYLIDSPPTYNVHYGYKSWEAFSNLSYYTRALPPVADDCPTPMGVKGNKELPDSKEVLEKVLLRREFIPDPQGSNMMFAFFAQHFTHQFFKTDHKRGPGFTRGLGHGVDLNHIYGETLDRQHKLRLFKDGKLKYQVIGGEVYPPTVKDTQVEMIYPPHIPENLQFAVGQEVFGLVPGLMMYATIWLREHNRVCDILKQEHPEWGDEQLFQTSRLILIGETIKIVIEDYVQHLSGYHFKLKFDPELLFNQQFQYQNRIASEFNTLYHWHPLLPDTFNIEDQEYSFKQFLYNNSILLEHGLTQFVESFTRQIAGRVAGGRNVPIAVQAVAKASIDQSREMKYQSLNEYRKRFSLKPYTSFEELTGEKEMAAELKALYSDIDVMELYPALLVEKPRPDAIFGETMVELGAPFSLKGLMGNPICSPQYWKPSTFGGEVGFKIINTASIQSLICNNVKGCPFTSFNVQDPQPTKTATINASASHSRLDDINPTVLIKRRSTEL

RAW264.7 = experiment: Inhibition of COX-2 gene expression in LPS-stimulated mouse RAW264.7 cells after 24 hrs by RT-PCR analysis; type: functional, cell-based

SMILES | IC50 [1] | inhibition (RAW264.7)
NS(=O)(=O)c1ccc(/C=C/c2ccoc2)cc1 | > 50000 nM | –
NS(=O)(=O)c1ccc(/C=C/c2ccsc2)cc1 | 440 nM | –
NS(=O)(=O)c1ccc(/C=C/c2ccco2)cc1 | 18300 nM | –
CS(=O)(=O)c1ccc(/C=C/c2ccoc2)cc1 | > 50000 nM | –
CS(=O)(=O)c1ccc(/C=C/c2ccco2)cc1 | 1180 nM | –

Further lines, with some results ahead:

IC50 [1] | SMILES | inhibition (RAW264.7)
13 nM | NS(=O)(=O)c1ccc(/C=C/c2cccs2)cc1 | Active
380 nM | CS(=O)(=O)c1ccc(/C=C/c2cccs2)cc1 | –
520 nM | CS(=O)(=O)c1ccc(/C=C/c2ccsc2)cc1 | –
